Experimental findings from US9765087B2, “Benzimidazole derivatives” (ENANTA PHARMACEUTICALS, INC., priority 2009, dated 2017) are described below.

Like-named read-outs stand apart in the source and are kept apart here. Where only a bound is given, the exact number is not on record here.

One assay deals with HCV 1a genotype replicon. Description: HCV replicon assay (qRT-PCR or luciferase), genotype 1a. The format is cell-based. Particulars: Hepatitis C virus. The method in brief: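 Bartenschlager HCV replicon Huh cells; EC50 from HCV RNA by TaqMan qRT-PCR normalised to GAPDH, cytotoxicity by MTS. Combination studies in Huh-luc/neo-ET cells seeded at 7,000/well, compounds in 6-point two-fold dilutions, 0.2% DMSO final, 72 h at 37 °C, luciferase read-out.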

The test system of another assay is HCV 1b genotype replicon. Description: HCV replicon assay (qRT-PCR or luciferase), genotype 1b. The format is cell-based. To be noted: Hepatitis C virus. Summed up: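 EC50 derived either from luciferase signal in Huh-luc/neo-ET replicon cells after 72 h compound exposure (0.2% DMSO, 37 °C) or from TaqMan qRT-PCR of replicon RNA normalized to GAPDH. MTS assay assessed cytotoxicity; combinations tested in 6-point two-fold checkerboards around each EC50.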

Setting [1] is: Table 12, numeric values, read-out: 1a EC50.
[2] abbreviates: Table 12, range class, read-out: 1b EC50 Range.
Where [3] appears, read: Table 12, range class, read-out: 1a EC50 Range.
[4] abbreviates: Table 12, numeric values, read-out: 1b EC50.

As for `COC(=O)N[C@@H](CC#N)C(=O)N1CCC[C@H]1c1nc(-c2ccc(C#Cc3ccc4[nH]c([C@@H]5CC6(CC6)CN5C(=O)[C@@H](NC(=O)OC)C(C)C)nc4c3)cc2)c[nH]1` [Example 621], the results for the EC50 with HCV 1a genotype replicon (setting [1]) and in the assay with HCV 1b genotype replicon (setting [2]) were 0.207 nM and < 1 nM, respectively.

In the case of `COC(=O)N[C@H](C(=O)N1C[C@]2(CCCO2)C[C@H]1c1ncc(-c2ccc(C#Cc3ccc4nc([C@@H]5C[C@@]6(CCCO6)CN5C(=O)[C@@H](NC(=O)OC)C(C)C)[nH]c4c3)cc2)[nH]1)C(C)C` [Example 625], the EC50 in the assay on HCV 1a genotype replicon (setting [3]) and with HCV 1b genotype replicon (setting [2]) was < 1 nM each time.

As for `COC(=O)N[C@H](C(=O)N1CC(F)(F)C[C@H]1c1nc(-c2ccc(C#Cc3ccc4[nH]c([C@@H]5C[C@@]6(CCCO6)CN5C(=O)[C@@H](NC(=O)OC)C(C)C)nc4c3)cc2)c[nH]1)C(C)C` [Example 627], the EC50 (in general, the concentration needed to bring the measured effect to its halfway point) in the assay with HCV 1a genotype replicon (setting [3]) is < 1 nM; in the assay on HCV 1b genotype replicon (setting [4]), 0.01 nM.

For the molecule `COC(=O)N[C@H](C(=O)N1C[C@H](F)C[C@H]1c1nc(-c2ccc(C#Cc3ccc4[nH]c([C@@H]5C[C@@]6(CCCO6)CN5C(=O)[C@@H](NC(=O)OC)C(C)C)nc4c3)cc2)c[nH]1)C(C)C` [Example 629], the EC50 in the assay on HCV 1a genotype replicon (setting [1]) was determined as 0.18 nM; in the assay on HCV 1b genotype replicon (setting [4]), 0.017 nM.

For `COC(=O)N[C@H](C(=O)N1CCC[C@H]1c1nc(-c2ccc(C#Cc3ccc4[nH]c([C@@H]5C[C@@]6(CCOC6)CN5C(=O)[C@@H](NC(=O)OC)C(C)C)nc4c3)cc2)c[nH]1)C(C)C` [Example 630], the EC50 is < 1 nM with HCV 1a genotype replicon (setting [3]) and 0.011 nM in the assay with HCV 1b genotype replicon (setting [4]).

With `COC(=O)N[C@H](C(=O)N1CC2(CC2)C[C@H]1c1nc(-c2ccc(C#Cc3ccc4[nH]c([C@@H]5C[C@@]6(CCOC6)CN5C(=O)[C@@H](NC(=O)OC)C(C)C)nc4c3)cc2)c[nH]1)C(C)C` [Example 631], the EC50 is < 1 nM with HCV 1a genotype replicon (setting [3]) and 0.008 nM with HCV 1b genotype replicon (setting [4]).

Turning to `COC(=O)N[C@H](C(=O)N1CC2(CC2)C[C@H]1c1ncc(-c2ccc(C#Cc3ccc4nc([C@@H]5C[C@@]6(CCCCO6)CN5C(=O)[C@@H](NC(=O)OC)C(C)C)[nH]c4c3)cc2)[nH]1)C(C)C` [Example 633], the EC50 in the assay with HCV 1a genotype replicon (setting [1]) is 0.035 nM; in the assay with HCV 1b genotype replicon (setting [2]), < 1 nM.

As to `COC(=O)N[C@H](C(=O)N1CCC[C@H]1c1ncc(-c2ccc(C#Cc3ccc4nc([C@@H]5C[C@@]6(CCC(=O)O6)CN5C(=O)[C@@H](NC(=O)OC)C(C)C)[nH]c4c3)cc2)[nH]1)C(C)C` [Example 635], the EC50 with HCV 1a genotype replicon (setting [3]) and in the assay on HCV 1b genotype replicon (setting [2]) was < 1 nM throughout.

Regarding `COC(=O)N[C@H](C(=O)N1CC2(CC2)C[C@H]1c1nc2ccc(C#Cc3ccc(-c4cnc([C@@H]5C[C@H]6C[C@H]6N5C(=O)[C@@H](NC(=O)OC)C(C)C)[nH]4)cc3)cc2[nH]1)C(C)C` [Example 637], the EC50 was < 1 nM in the assay with HCV 1a genotype replicon (setting [3]) and 0.004 nM in the assay on HCV 1b genotype replicon (setting [4]).

For the molecule `COC(=O)N[C@H](C(=O)N1CC2(CC2)C[C@H]1c1ncc(-c2ccc(C#Cc3ccc4nc([C@@H]5C[C@@]6(CCCOC6)CN5C(=O)[C@@H](NC(=O)OC)C(C)C)[nH]c4c3)cc2)[nH]1)C(C)C` [Example 638], the figures for the EC50 in the assay on HCV 1a genotype replicon (setting [3]) and in the assay on HCV 1b genotype replicon (setting [4]) were < 1 nM and 0.007 nM, respectively.

`COC(=O)N[C@H](C(=O)N1CC2(CC2)C[C@H]1c1ncc(-c2ccc(C#Cc3ccc4nc([C@@H]5C[C@]6(CCCOC6)CN5C(=O)[C@@H](NC(=O)OC)C(C)C)[nH]c4c3)cc2)[nH]1)C(C)C` [Example 639]: the EC50 with HCV 1a genotype replicon (setting [3]) was < 1 nM; in the assay on HCV 1b genotype replicon (setting [4]), 0.008 nM.

As for `COC(=O)N[C@H](C(=O)N1CC2(CC2)C[C@H]1c1nc(-c2ccc(-c3ccc4[nH]c([C@@H]5CC6(CC6)CN5C(=O)[C@@H](NC(=O)OC)C(C)C)nc4c3)cc2)c[nH]1)C(C)C` [Example 640], the results for the EC50 in the assay with HCV 1a genotype replicon (setting [3]) and in the assay on HCV 1b genotype replicon (setting [4]) were 1 to 10 nM and 0.03 nM, respectively.

For `COC(=O)N[C@H](C(=O)N1CCC[C@H]1c1ncc(-c2ccc(C#Cc3ccc4nc([C@@H]5C[C@H](C6CC6)CN5C(=O)[C@@H](NC(=O)OC)C(C)C)[nH]c4c3)cc2)[nH]1)C(C)C` [Example 641], the concentration giving a half-maximal response (EC50) was < 1 nM in the assay on HCV 1a genotype replicon (setting [3]) and 0.007 nM in the assay on HCV 1b genotype replicon (setting [4]).

In the case of `COC(=O)N[C@H](C(=O)N1CCC[C@H]1c1ncc(-c2ccc3nc(-c4ccc5nc([C@@H]6CC7(CC7)CN6C(=O)[C@@H](NC(=O)OC)C(C)C)[nH]c5c4)cnc3c2)[nH]1)C(C)C` [Example 643], the EC50 with HCV 1a genotype replicon (setting [3]) was < 1 nM; in the assay with HCV 1b genotype replicon (setting [4]), 0.054 nM.

Take `COC(=O)N[C@H](C(=O)N1CCC[C@H]1c1nc(-c2ccc3nc(-c4ccc5[nH]c([C@@H]6CC7(CC7)CN6C(=O)[C@@H](NC(=O)OC)C(C)C)nc5c4)ncc3c2)c[nH]1)C(C)C` [Example 644]: the EC50 in the assay with HCV 1a genotype replicon (setting [3]) was < 1 nM; in the assay with HCV 1b genotype replicon (setting [4]) it was 0.045 nM.

For `COC(=O)N[C@@H](C(=O)N1CC2(CC2)C[C@H]1c1ncc(-c2ccc(C#Cc3ccc4nc([C@@H]5CC6(CC6)CN5C(=O)[C@H](NC(=O)OC)c5ccccc5)[nH]c4c3)cc2)[nH]1)c1ccccc1` [Example 645], the results for the EC50 in the assay with HCV 1a genotype replicon (setting [3]) and with HCV 1b genotype replicon (setting [4]) were < 1 nM and 0.005 nM, respectively.

Turning to `COC(=O)N[C@H](C(=O)N1CCC[C@H]1c1ncc(-c2ccc(C#Cc3ccc4nc([C@@H]5CC6(CC6)CN5C(=O)[C@H](NC(=O)OC)c5ccccc5)[nH]c4c3)cc2)[nH]1)C(C)C` [Example 646], the EC50 with HCV 1a genotype replicon (read-out: 1a EC50 Range, Table 12, range class) is < 1 nM; with HCV 1b genotype replicon (setting [4]), 0.005 nM.

On to `COC(=O)N[C@H](C(=O)N1C[C@@]2(C[C@H]1c1nc(-c3ccc(C#Cc4ccc5[nH]c([C@@H]6CC7(CC7)CN6C(=O)[C@@H](NC(=O)OC)C(C)C)nc5c4)cc3)c[nH]1)CC2(F)F)C(C)C` [Example 687], for which the EC50 is < 1 nM with HCV 1a genotype replicon (setting [3]) and 0.01 nM with HCV 1b genotype replicon (setting [4]).

On to `COC(=O)N[C@H](C(=O)N1CC2(CC2)C[C@H]1c1ncc(-c2ccc(C#Cc3ccc4nc([C@@H]5C[C@H](C6CC6)CN5C(=O)[C@@H](NC(=O)OC)C(C)C)[nH]c4c3)cc2)[nH]1)C(C)C` [Example 691], for which the EC50 with HCV 1a genotype replicon (setting [3]) and in the assay on HCV 1b genotype replicon (setting [2]) was < 1 nM each time.

Consider `COC(=O)N[C@H](C(=O)N1CCC[C@H]1c1nc(-c2ccc3cc(-c4ccc5[nH]c([C@@H]6CC7(CC7)CN6C(=O)[C@@H](NC(=O)OC)C(C)C)nc5c4)ccc3c2)c[nH]1)C(C)C` [Example 692], for which the EC50 in the assay with HCV 1a genotype replicon (setting [3]) is < 1 nM; in the assay on HCV 1b genotype replicon (setting [4]), 0.011 nM.

Take `COC(=O)NCCCC[C@H](NC(=O)OC)C(=O)N1CCC[C@H]1c1nc(-c2ccc(C#Cc3ccc4[nH]c([C@@H]5CC6(CC6)CN5C(=O)[C@@H](NC(=O)OC)C(C)C)nc4c3)cc2)c[nH]1` [Example 693]: the half-maximal effective concentration (EC50) with HCV 1a genotype replicon (setting [3]) and in the assay on HCV 1b genotype replicon (setting [2]) was < 1 nM in each case.
